Assay results: US20260132132A1, “3A,4,5,6-TETRAHYDRO-1 H-PYRAZOLO[3,4-C]PYRIDIN-7(7AH)-ONE DERIVATIVES AS FACTOR XIIA INHIBITORS” (KALVISTA PHARMACEUTICALS LIMITED, priority 2022, published 2026)

Experiments:
FXa = FXa (Homo sapiens, UniProt P00742); assay: Related protease inhibition: FXa, fluorogenic substrate; format: biochemical; conditions: fluorogenic substrate at Km, 25° C.; H1-H3 = % activity at 40 μM
Protocol: Human serine protease enzyme Plasma Kallikrein, KLK1, FXa, Plasmin, Thrombin and Trypsin were assayed for enzymatic activity using an appropriate fluorogenic substrate at Km concentration, FXIa at fixed substrate concentration of 100 μM and various concentrations of the test compound.

[1] = target: T1, Human Factor XIIa (hFXIIa) (Homo sapiens, UniProt P00748); assay: Determination of Human Factor XIIa (hFXIIa) inhibition, fluorogenic substrate IC50 assay; format: biochemical; conditions: fluorogenic substrate H-DPro-Phe-Arg-AFC at Km, 25° C., read-out: Human FXIIa IC50
T1 construct: purchased Enzyme Research Laboratories
T1 sequence (P00748 373-615 limits assumed): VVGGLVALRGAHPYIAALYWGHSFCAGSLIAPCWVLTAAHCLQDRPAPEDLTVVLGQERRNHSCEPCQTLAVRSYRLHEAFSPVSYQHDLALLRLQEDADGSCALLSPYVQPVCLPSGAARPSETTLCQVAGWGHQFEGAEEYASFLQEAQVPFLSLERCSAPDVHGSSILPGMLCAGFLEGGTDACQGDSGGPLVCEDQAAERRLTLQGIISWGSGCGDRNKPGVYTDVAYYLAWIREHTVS
T1 sequence (P00748 20-372 partner limits assumed): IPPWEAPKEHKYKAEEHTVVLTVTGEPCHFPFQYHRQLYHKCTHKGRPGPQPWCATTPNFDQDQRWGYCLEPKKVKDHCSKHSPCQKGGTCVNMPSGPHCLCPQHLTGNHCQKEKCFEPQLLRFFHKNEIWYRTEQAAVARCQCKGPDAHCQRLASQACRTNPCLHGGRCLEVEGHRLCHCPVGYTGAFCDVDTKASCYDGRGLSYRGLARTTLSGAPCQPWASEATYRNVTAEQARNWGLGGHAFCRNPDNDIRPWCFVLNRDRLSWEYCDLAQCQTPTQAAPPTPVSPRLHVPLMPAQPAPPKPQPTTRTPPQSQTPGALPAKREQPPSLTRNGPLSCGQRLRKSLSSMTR
Protocol: Determination of Human Factor XIIa (hFXIIa) inhibition
The Km for the cleavage of the substrate by hFXIIa was determined by standard transformation of the Michaelis-Menten equation, with subsequent inhibition assays performed at substrate Km concentration.

FXa, sequence (P00742 235-488 limits assumed): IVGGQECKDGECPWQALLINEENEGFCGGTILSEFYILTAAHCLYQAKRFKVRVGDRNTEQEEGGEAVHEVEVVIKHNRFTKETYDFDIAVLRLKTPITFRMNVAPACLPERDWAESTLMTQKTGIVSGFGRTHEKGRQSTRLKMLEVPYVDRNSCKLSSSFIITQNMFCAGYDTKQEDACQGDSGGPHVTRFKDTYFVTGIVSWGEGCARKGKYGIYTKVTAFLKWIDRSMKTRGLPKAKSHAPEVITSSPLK
FXa, sequence (P00742 41-179 partner limits assumed): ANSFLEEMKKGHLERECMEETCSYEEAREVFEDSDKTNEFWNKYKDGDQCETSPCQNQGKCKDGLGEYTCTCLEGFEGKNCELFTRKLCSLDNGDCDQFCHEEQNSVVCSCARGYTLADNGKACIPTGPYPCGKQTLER

IC50 (FXa)	IC50 [1]	SMILES
3000 to 10000 nM	10 to 100 nM	Cc1cc(CNC(=O)c2nn(-c3cccc(Cl)c3)c3c2CCN(c2ccc4c(c2)C(=O)N(CCCO)CCO4)C3=O)nn1C [Example 1377, 1-(3-chlorophenyl)-N-((1,5-dimethyl-1H-pyrazol-3-yl)methyl)-6-(4-(3-hydroxypropyl)-5-oxo-2,3,4,5-tetrahydrobenzo[f][1,4]oxazepin-7-yl)-7-oxo-4,5,6,7-tetrahydro-1H-pyrazolo[3,4-c]pyridine-3-carboxamide]
> 40000 nM	10 to 100 nM	O=C(NCc1ccco1)c1nn(-c2cccc(Cl)c2)c2c1CCN(c1ccc3c(c1)CN(CCO)CC3)C2=O [Example 1109, 1-(3-chlorophenyl)-N-(furan-2-ylmethyl)-6-(2-(2-hydroxyethyl)-1,2,3,4-tetrahydroisoquinolin-7-yl)-7-oxo-4,5,6,7-tetrahydro-1H-pyrazolo[3,4-c]pyridine-3-carboxamide]
> 40000 nM	100 to 300 nM	O=C(NCc1ccccc1)c1nn(-c2cccc(Cl)c2)c2c1CCN(c1ccc3c(c1)CN(CC1CC1)CC3)C2=O [Example 1019, N-benzyl-1-(3-chlorophenyl)-6-(2-(cyclopropylmethyl)-1,2,3,4-tetrahydroisoquinolin-7-yl)-7-oxo-4,5,6,7-tetrahydro-1H-pyrazolo[3,4-c]pyridine-3-carboxamide]
3000 to 10000 nM	100 to 300 nM	CN1CCc2ccc(N3CCc4c(C(=O)NCC5CCCCC5)nn(-c5cccc(Cl)c5)c4C3=O)cc2C1 [Example 1023, 1-(3-chlorophenyl)-N-(cyclohexylmethyl)-6-(2-methyl-1,2,3,4-tetrahydroisoquinolin-7-yl)-7-oxo-4,5,6,7-tetrahydro-1H-pyrazolo[3,4-c]pyridine-3-carboxamide]
> 40000 nM	100 to 300 nM	CCN1CCc2ccc(N3CCc4c(C(=O)NC5CCOCC5)nn(-c5cccc(Cl)c5)c4C3=O)cc2C1 [Example 1085, 1-(3-chlorophenyl)-6-(2-ethyl-1,2,3,4-tetrahydroisoquinolin-7-yl)-7-oxo-N-(tetrahydro-2H-pyran-4-yl)-4,5,6,7-tetrahydro-1H-pyrazolo[3,4-c]pyridine-3-carboxamide]
3000 to 10000 nM	10 to 100 nM	CCN1CCOc2ccc(N3CCc4c(C(=O)NCc5cc(C)n(C)n5)nn(-c5cccc(Cl)c5)c4C3=O)cc2C1=O [Example 1317, 1-(3-chlorophenyl)-N-((1,5-dimethyl-1H-pyrazol-3-yl)methyl)-6-(4-ethyl-5-oxo-2,3,4,5-tetrahydrobenzo[f][1,4]oxazepin-7-yl)-7-oxo-4,5,6,7-tetrahydro-1H-pyrazolo[3,4-c]pyridine-3-carboxamide]
10000 to 40000 nM	100 to 300 nM	CCN1CCc2cnc(N3CCc4c(C(=O)NCC5CC5)nn(-c5cccc(Cl)c5)c4C3=O)cc2C1 [Example 1117, 1-(3-Chlorophenyl)-N-(cyclopropylmethyl)-6-(6-ethyl-5,6,7,8-tetrahydro-2,6-naphthyridin-3-yl)-7-oxo-4,5,6,7-tetrahydro-1H-pyrazolo[3,4-c]pyridine-3-carboxamide]
> 40000 nM	300 to 1000 nM	CO[C@H]1CCOC[C@H]1NC(=O)c1nn(-c2cccc(Cl)c2)c2c1CCN(c1ccc3c(c1)C(=O)N(C)CC3)C2=O [Example 1265, 1-(3-chlorophenyl)-N-((3R,4S)-4-methoxytetrahydro-2H-pyran-3-yl)-6-(2-methyl-1-oxo-1,2,3,4-tetrahydroisoquinolin-7-yl)-7-oxo-4,5,6,7-tetrahydro-1H-pyrazolo[3,4-c]pyridine-3-carboxamide]
3000 to 10000 nM	300 to 1000 nM	Cc1cc(CNC(=O)c2nn(-c3cccc(Cl)c3)c3c2CCN(c2ccc4c(c2)C(=O)N(CCO)[C@@H](C)CO4)C3=O)nn1C [Example 1379, (S)-1-(3-chlorophenyl)-N-((1,5-dimethyl-1H-pyrazol-3-yl)methyl)-6-(4-(2-hydroxyethyl)-3-methyl-5-oxo-2,3,4,5-tetrahydrobenzo[f][1,4]oxazepin-7-yl)-7-oxo-4,5,6,7-tetrahydro-1H-pyrazolo[3,4-c]pyridine-3-carboxamide]
10000 to 40000 nM	100 to 300 nM	Cc1cc(CNC(=O)c2nn(-c3cccc(Cl)c3)c3c(=O)n(-c4ccc5c(c4)C(=O)N(C)CC5)c(C)nc23)nn1C [Example 3021, 1-(3-chlorophenyl)-N-((1,5-dimethyl-1H-pyrazol-3-yl)methyl)-5-methyl-6-(2-methyl-1-oxo-1,2,3,4-tetrahydroisoquinolin-7-yl)-7-oxo-6,7-dihydro-1H-pyrazolo[4,3-d]pyrimidine-3-carboxamide]
10000 to 40000 nM	1000 to 3000 nM	C[C@@H](NC(=O)c1nn(-c2cccc(Cl)c2)c2c1CCN(c1ccc3c(c1)C(=O)N(C)CC3)C2=O)C(=O)O [Example 1387, (1-(3-chlorophenyl)-6-(2-methyl-1-oxo-1,2,3,4-tetrahydroisoquinolin-7-yl)-7-oxo-4,5,6,7-tetrahydro-1H-pyrazolo[3,4-c]pyridine-3-carbonyl)-D-alanine]
> 40000 nM	100 to 300 nM	COc1cccnc1CNC(=O)c1nn(-c2cccc(Cl)c2)c2c1CCN(c1ccc3c(c1)C(=O)N(C)CC3)C2=O [Example 1233, 1-(3-chlorophenyl)-N-((3-methoxypyridin-2-yl)methyl)-6-(2-methyl-1-oxo-1,2,3,4-tetrahydroisoquinolin-7-yl)-7-oxo-4,5,6,7-tetrahydro-1H-pyrazolo[3,4-c]pyridine-3-carboxamide]
> 40000 nM	100 to 300 nM	CN1CCc2ccc(N3CCc4c(C(=O)N[C@H](CO)c5ccccc5)nn(-c5cccc(Cl)c5)c4C3=O)cc2C1=O [Example 1307, (S)-1-(3-chlorophenyl)-N-(2-hydroxy-1-phenylethyl)-6-(2-methyl-1-oxo-1,2,3,4-tetrahydroisoquinolin-7-yl)-7-oxo-4,5,6,7-tetrahydro-1H-pyrazolo[3,4-c]pyridine-3-carboxamide]
3000 to 10000 nM	100 to 300 nM	CN1CCCc2ccc(N3CCc4c(C(=O)NCc5ccccc5)nn(-c5cccc(Cl)c5)c4C3=O)cc2C1 [Example 1030, N-benzyl-1-(3-chlorophenyl)-6-(2-methyl-2,3,4,5-tetrahydro-1H-benzo[c]azepin-8-yl)-7-oxo-4,5,6,7-tetrahydro-1H-pyrazolo[3,4-c]pyridine-3-carboxamide]
10000 to 40000 nM	300 to 1000 nM	Cc1cc(CNC(=O)c2nn(-c3cccc(Cl)c3)c3c2CCN(c2ccc4c(c2)C(=O)N(C)CC(=O)N4C)C3=O)n[nH]1 [Example 1370, 1-(3-chlorophenyl)-6-(1,4-dimethyl-2,5-dioxo-2,3,4,5-tetrahydro-1H-benzo[e][1,4]diazepin-7-yl)-N-((5-methyl-1H-pyrazol-3-yl)methyl)-7-oxo-4,5,6,7-tetrahydro-1H-pyrazolo[3,4-c]pyridine-3-carboxamide]
> 40000 nM	3000 to 10000 nM	CN1C(=O)CCc2ccc(N3CCc4c(C(=O)NCC5CC5)nn(-c5cccc(Cl)c5)c4C3=O)cc21 [Example 1207, 1-(3-chlorophenyl)-N-(cyclopropylmethyl)-6-(1-methyl-2-oxo-1,2,3,4-tetrahydroquinolin-7-yl)-7-oxo-4,5,6,7-tetrahydro-1H-pyrazolo[3,4-c]pyridine-3-carboxamide]
> 40000 nM	300 to 1000 nM	CCNC(=O)c1nn(-c2cccc(C)c2F)c2c1CCN(c1ccc3c(c1)C(=O)N(C)CC3)C2=O [Example 2032, N-ethyl-1-(2-fluoro-3-methylphenyl)-6-(2-methyl-1-oxo-1,2,3,4-tetrahydroisoquinolin-7-yl)-7-oxo-4,5,6,7-tetrahydro-1H-pyrazolo[3,4-c]pyridine-3-carboxamide]
> 40000 nM	100 to 300 nM	Cc1cc(CNC(=O)c2nn(-c3cccc(Cl)c3)c3c2CCN(c2ccc4c(c2)C(=O)N(CC2CCOC2)CC4)C3=O)nn1C (stereo not shown) [Example 1258, 1-(3-chlorophenyl)-N-((1,5-dimethyl-1H-pyrazol-3-yl)methyl)-7-oxo-6-(1-oxo-2-((tetrahydrofuran-3-yl)methyl)-1,2,3,4-tetrahydroisoquinolin-7-yl)-4,5,6,7-tetrahydro-1H-pyrazolo[3,4-c]pyridine-3-carboxamide]
> 40000 nM	300 to 1000 nM	Cc1ccc(CNC(=O)c2nn(-c3cccc(Cl)c3)c3c2CCN(c2ccc4c(c2)C(=O)N(C)CC4)C3=O)nn1 [Example 1267, 1-(3-chlorophenyl)-6-(2-methyl-1-oxo-1,2,3,4-tetrahydroisoquinolin-7-yl)-N-((6-methylpyridazin-3-yl)methyl)-7-oxo-4,5,6,7-tetrahydro-1H-pyrazolo[3,4-c]pyridine-3-carboxamide]
10000 to 40000 nM	100 to 300 nM	CCN1CCc2ccc(N3CCc4c(C(=O)NCC5CC5)nn(-c5cccc(Cl)c5)c4C3=O)cc2C1 [Example 1031, 1-(3-chlorophenyl)-N-(cyclopropylmethyl)-6-(2-ethyl-1,2,3,4-tetrahydroisoquinolin-7-yl)-7-oxo-4,5,6,7-tetrahydro-1H-pyrazolo[3,4-c]pyridine-3-carboxamide]
